# Reference: PMC12267714 (Nature Communications, 2025)
# Counter-ions that a name gives are not always drawn.
# Settings: mouse, in vivo, 20 mg/kg
smiles,measurement,value
CN(C)C(=O)COC(=O)Cc1ccc(OC(=O)c2ccc(NC(=N)N)cc2)cc1 [camostat mesylate],level in the plasma after oral delivery,no detectable level
